How the values were obtained:
[1] = Encapsulation rate of LNP RNA (Qubit RNA HS Assay kit); format: physicochemical; conditions: LNPs
Method: (§1) The amino lipid compound of the invention was mixed with DOPE, cholesterol and PEG2000-DMG in a molar ratio of 45:10:42.5:2.5, and dissolved in absolute ethanol such that the molar concentration of the amino lipid compound was 0.001-0.01 mmol/L. By using a microinjection pump, the resultant ethanol solution and a sodium acetate solution (50 mM, pH=4.0) in which luciferase mRNA (Fluc mRNA, TriLink) was dissolved were mixed in a volume ratio of 1:3 in a microchannel chip to prepare a crude solution of lipid nanoparticles, which was then dialyzed in 1×PBS at a controlled temperature of 4° C. for 6 h using a dialysis box (Fisher, MWCO 20,000) and filtered through a 0.22 μm microporous filter membrane before use. The mass ratio of the amino lipid compound to Fluc mRNA was about 10:1. The resultant solution of lipid nanoparticles (LNPs) was administered to the tested animals by subcutaneous administration.
Detection of encapsulation rate: the concentration of LNP RNA was detected by Qubit® RNA HS Assay kit. The theoretical RNA concentration was given by the total amount of RNA input divided by the total volume of the final solution.
(§2) The preparation method was the same as Formulation method 1, except that amino lipid compound, DSPC, cholesterol and PEG2000-DMG were used in a molar ratio of 50:10:38.5: 1.5. The resultant solution of lipid nanoparticles (LNPs) was administered to the tested animals by tail vein and intramuscular injection.

BALB/c mice [2] = test: In vivo delivery of luciferase mRNA (Fluc mRNA) by lipid nanoparticles, in vivo imaging; conditions: 0.5 mg/kg Fluc mRNA, after 12 hours
Method: as §1, §2
(§3) Animal Preparation: 6-week aged female BALB/c mice weighed about 20 g were selected and fed in a SPF-grade feeding room. Animal tests were conducted strictly according to the guidelines of national health institutions and the requirements of animal ethics.
In vivo delivery: 9 mice were assigned randomly to each group, and the lipid nanoparticle solution was injected by three routes of administration, i.e., subcutaneous, intramuscular and tail vein injection at a dosage of 0.5 mg/kg Fluc mRNA (3 mice for each route of administration). After 12 hours, 200 μL of 10 mg/mL potassium salt of […] (PerkinElmer) was injected into each mouse through the tail vein. After 10 min, the mice were placed under an in vivo imaging system (IVIS-200, Xenogen) to observe the total fluorescence intensity of each mouse and take photographs for record. The expression intensity of Fluc mRNA delivered by representative amino lipid compounds through the three routes of administration are shown in Table 5-7. DLin-MC3 was used as control.

BALB/c mice [3] = test: In vivo delivery of ovalbumin mRNA (OVA mRNA) and immunity, IgG antibody titer by ELISA; conditions: OVA mRNA LNPs 0.5 mg/kg Day 0 and Day 7, serum Day 21, versus DLin-MC3 control, FIG. 1
Method: The amino lipid compound of the invention was mixed with DOPE, cholesterol and PEG2000-DMG in a molar ratio of 50:10:38.5:1.5 and dissolved in absolute ethanol such that the molar concentration of the amino lipid compound was 0.001-0.01 mmol/L. Ovalbumin mRNA (OVA mRNA, TriLink) was dissolved in sodium acetate solution (50 mM, pH=4.0). By using a microinjection pump, the resultant ethanol solution and sodium acetate solution (50 mM, pH=4.0) were mixed in a volume ratio of 1:3 in a microchannel chip to prepare a crude solution of lipid nanoparticles, which was then dialyzed in 1×PBS at a controlled temperature of 4° C. for 6 h using a dialysis box (Fisher, MWCO 20,000), and filtered through a 0.22 μm microporous filter membrane before use. The mass ratio of the amino lipid compound to ovalbumin mRNA (OVA mRNA) was about 10:1.
as §3
In vivo delivery: 3 mice were assigned randomly to each group, and the lipid nanoparticle solution was intramuscularly injected into the leg at a dosage of 0.5 mg/kg mRNA (Day 0). After 7 days, one booster injection was performed at the same dosage (Day 7). On Day 21, blood was taken from the tail vein for serological analysis. DLin-MC3 was used as control (FIG. 1).
Enzyme-linked immunosorbent assay (ELISA): a flat-bottomed 96-well plate (Nunc) was pre-coated, with a concentration of OVA protein of 0.5 μg protein per well in 50 mM carbonate buffer (pH 9.6), and was allowed to stay overnight at 4° C. and then blocked with 5% glycine. Serum obtained from animals receiving the lipid nanoparticle solution containing the mRNA was diluted from 10^2 to 10^6 times with PBS-0.05% Tween (PBS-T) at pH 7.4, and added to the wells, incubated at room temperature and placed at 37° C. for 1 h. Horseradish peroxidase (HRP, Invitrogen) coupled goat anti-mouse IgG was used for labeling in PBS-T-1% BSA at a dilution rate of 1:10,000. After addition of the HRP substrate, the absorbance at 450 nm was measured in ELISA microplate reader (Bio-Rad).

[4] = Particle size and PDI of lipid nanoparticles (Nano-ZSZEN3600, Malvern); format: physicochemical; conditions: LNPs; for Particle size (nm): Fluc mRNA
Method: as §1
Characterization of particle size: the particle size and PDI of the prepared lipid nanoparticles were determined by Nano-ZSZEN3600 (Malvern). 40 uL of LNP solution was taken for particle size measurement with circulation for three times, 30 s for each circulation.
as §2

[5] = Formulation Method 1 (amino lipid:DOPE:cholesterol:PEG2000-DMG 45:10:42.5:2.5)
[6] = Formulation method 2 (amino lipid:DSPC:cholesterol:PEG2000-DMG 50:10:38.5:1.5)

SMILES	Encapsulation rate ([1]; Formulation Method 1) [%]	Encapsulation rate ([1]; Formulation method 2) [%]	Fluorescence intensity (expression intensity of Fluc mRNA) (BALB/c mice [2]; intramuscular administration)	Fluorescence intensity (expression intensity of Fluc mRNA) (BALB/c mice [2]; subcutaneous administration)	Fluorescence intensity (expression intensity of Fluc mRNA) (BALB/c mice [2]; tail vein administration)	IgG antibody titer (BALB/c mice [3])	PDI ([4]; Formulation Method 1)	Particle size (nm) [4, 5] [nm]	PDI ([4]; Formulation method 2)	Particle size (nm) [4, 6] [nm]
CCCCCCCCCCCCCCCCCCSc1nc(NCCN2CCCC2)nc(SCCCCCCC)n1 [Compound S7S18D3]	99.5	99.3	8.7E+07	2.9E+08	8.1E+07	significantly superior to that of the control	0.10	121 ± 5	0.04	95 ± 5
CCCCCCCCCCCCCCCCSc1nc(NCCCCCCC)nc(NCCCN2CCN(C)CC2)n1 [Compound S16N7D9]	98.6	99.2	4.3E+07	1.4E+07	5.1E+07	significantly superior to that of the control	0.01	102 ± 5	0.05	92 ± 5
CCCCCCCC/C=C\CCCCCCCCSc1nc(OCCN2CCCC2)nc(SCCCCCCCCC)n1 [Compound S19S9O8]	99.6	99.2	9.1E+07	1.1E+07	1.1E+08	significantly superior to that of the control	0.02	88 ± 5	0.03	88 ± 5
CCCCCCCC/C=C\CCCCCCCCSc1nc(OCC2CCN(C)CC2)nc(SCCCCCCCCC)n1 [Compound S19S9O9]	99.2	99.0	1.8E+07	2.8E+07	3.1E+07	significantly superior to that of the control	0.04	110 ± 5	0.05	110 ± 5
